Test results from patent US20110294853A1, “Bis Aromatic Compounds for Use in the Treatment of Inflammation” (priority 2008, published 2011).

Biological target: T1, Recombinant human LTC4 synthase (Homo sapiens, UniProt Q16873)
T1 construct: made in house; host or cells: Pichia pastoris ('Piccia pastoralis' [sic])
T1 sequence (Q16873 1-150): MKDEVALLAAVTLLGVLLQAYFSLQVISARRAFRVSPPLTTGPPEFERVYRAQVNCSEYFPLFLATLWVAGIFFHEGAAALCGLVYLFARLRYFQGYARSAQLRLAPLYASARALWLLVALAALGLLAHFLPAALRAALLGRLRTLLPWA
Assay: In vitro assay of LTC4 synthase inhibition (HPLC or HTRF detection of LTC4)
Assay type: biochemical
Details: inhibitor concentration 10 μM; percentage inhibitions of LTC4
Protocol: In the assay LTC4 synthase catalyses the reaction where the substrate LTA4 methyl ester is converted to the corresponding LTC4 methyl ester. Recombinant human LTC4 synthase is expressed in Piccia pastoralis and the purified enzyme is dissolved in 25 mM Tris-buffer pH 7.8 and stored at −20° C. The assay is performed in phosphate buffered saline (PBS) pH 7.4, supplemented with 5 mM glutathione (GSH). The reaction is terminated by addition of acetonitrile/MeOH/acetic acid (50/50/1). The assay is performed at rt in 96-well plates. Analysis of the formed LTC4 methyl ester is performed with reversed phase HPLC (Waters 2795 utilizing an Onyx Monolithic C18 column). The mobile phase consists of acetonitrile/MeOH/H2O (32.5/30/37.5) with 1% acetic acid pH adjusted with NH3 to pH 5.6, and absorbance measured at 280 nm with a Waters 2487 UV-detector.
The following is added chronologically to each well: • 1. 50 μL assay buffer, PBS with 5 mM GSH. • 2. 0.5 μL inhibitor in DMSO. • 3. 2 μL LTC4 synthase in PBS. The total protein concentration in this solution is 0.025 mg/mL. Incubation of the plate at room temperature for 10 minutes. • 4. 0.5 μL LTA4 methyl ester. Incubation of the plate at rt for 1 min. • 5. 50 μL stop solution. • 80 μL of the incubation mixture is analysed with HPLC.
Alternatively HTRF detection of LTC4 can be used:
In the assay, LTC4 synthase catalyses the reaction where the substrate LTA4 is converted to LTC4. Recombinant human LTC4 synthase is expressed in Piccia pastoralis and the purified enzyme is dissolved in 25 mM Tris-buffer pH 7.8 supplemented with 0.1 mM glutathione (GSH) and stored at −80° C. The assay is performed in phosphate buffered saline (PBS) pH 7.4 and 5 mM GSH in 384-well plates.
The following is added chronologically to each well:
1. 48 μL LTC4 synthase in PBS with 5 mM GSH. The total protein concentration in this solution is 0.5 μg/mL. 2. 1 μL inhibitor in DMSO (final concentration 10 μM). 3. Incubation of the plate at rt for 10 min. 4. 1 μL LTA4 (final concentration 2.5 μM). 5. Incubation of the plate at rt for 5 min. 6. 10 μl of the incubation mixture is analysed using HTRF detection.

| Structure (SMILES) | inhibition at 10 µM [%] |
| --- | --- |
| CCCCOc1ccc(S(=O)(=O)Nc2ccc(NCc3cccc(Oc4ccc(C(C)(C)C)cc4)c3)cc2C(=O)O)cc1 [6:1, 2-(4-Butoxyphenylsulfonamido)-5-(3-(4-tert-butylphenoxy)benzylamino)benzoic acid] | 100 |
| CCCCc1ccc(C(=O)Nc2ccc(NC(=O)c3ccc(NC(=O)c4ccccc4)cc3)cc2C(=O)O)cc1 [4:2, 5-(4-Benzoylaminobenzoylamino)-2-(4-butylbenzoylamino)benzoic acid] | 96 |
| O=C(O)c1cc(NS(=O)(=O)c2ccc(Oc3ccccc3)cc2)ccc1NS(=O)(=O)c1ccc(OC(F)(F)F)cc1 [5:1, 5-(4-Phenoxyphenylsulfonamido)-2-(4-(trifluoromethoxy)phenylsulfonamido)benzoic acid] | 100 |
| CC(=O)Oc1ccc(C(=O)Nc2ccc(-c3ccc(NC(=O)c4ccc(OC(C)=O)cc4)c(C(=O)O)c3)cc2C(=O)O)cc1 [Example 1:12, 4,4′-bis(4-acetoxybenzamido)biphenyl-3,3′-dicarboxylic acid] | 97 |
| CCCCOc1ccc(S(=O)(=O)Nc2ccc(NCc3cccc(OCc4ccccc4Cl)c3)cc2C(=O)O)cc1 [6:2, 2-(4-Butoxyphenylsulfonamido)-5-(3-(2-chlorobenzyloxy)benzylamino)benzoic acid] | 100 |
| CCCCc1ccc(S(=O)(=O)Nc2ccc(NS(=O)(=O)c3ccc(Oc4ccccc4Cl)cc3)cc2C(=O)O)cc1 [5:3, 2-(4-Butylphenylsulfonamido)-5-(4-(2-chloro-phenoxy)-phenylsulfonamido)benzoic acid] | 98 |
| CCCCc1ccc(C(=O)Nc2ccc(OCc3ccc(NC(=O)c4cccc(Cl)c4)c(C(=O)O)c3)cc2C(=O)O)cc1 [3:1, 2-(4-Butylbenzoylamino)-5-[3-carboxy-4-(3-chlorobenzoylamino)benzyloxy]-benzoic acid] | 100 |
| COc1ccc(C(=O)Nc2ccc(CCc3ccc(NC(=O)c4cccc(C(F)(F)F)c4)c(C(=O)O)c3)cc2C(=O)O)cc1 [2:1, 5-{2-[3-Carboxy-4-(4-methoxybenzoylamino)phenyl]ethyl}-2-(3-trifluoromethylbenzoylamino)benzoic acid] | 87 |
| O=C(Nc1ccc(C#Cc2ccc(NC(=O)c3ccc(C(F)(F)F)cc3)c(C(=O)O)c2)cc1)c1cccc(C(F)(F)F)c1 [2:5, 2-(4-Trifluoromethylbenzoylamino)-5-[4-(3-trifluoromethylbenzoylamino)-phenylethynyl]-benzoic acid] | 89 |
| CCCCc1ccc(S(=O)(=O)Nc2ccc(NS(=O)(=O)c3ccc(Oc4ccccc4OC)cc3)cc2C(=O)O)cc1 [5:4, 2-(4-Butylphenylsulfonamido)-5-(4-(2-methoxy-phenoxy)phenylsulfonamido)benzoic acid] | 100 |
| O=C(Nc1ccc(COc2ccc(NC(=O)c3cccc(Cl)c3)c(C(=O)O)c2)cc1C(=O)O)c1cccc(Cl)c1 [3:2, 2-(3-Chlorobenzoylamino)-5-[3-carboxy-4-(3-chlorobenzoylamino)-benzyloxy]-benzoic acid] | 100 |
| CCCCc1ccc(C(=O)Nc2ccc(NC(=O)c3ccc(NC(=O)c4ccc(OC(C)C)cc4)cc3)cc2C(=O)O)cc1 [4:1, 2-(4-Butylbenzoylamino)-5-[4-(4-isopropoxy-benzoylamino)benzoyl-amino]-benzoic acid] | 79 |
| O=C(O)c1cc(-c2ccc(NS(=O)(=O)c3ccccc3)c(C(=O)O)c2)ccc1NS(=O)(=O)c1ccccc1 [Example 1:2, 4,4′-bis(phenylsulfonamido)biphenyl-3,3′-dicarboxylic acid] | 92 |
| O=C(Nc1ccc(-c2ccc(NC(=O)c3cccc(Cl)c3)c(C(=O)O)c2)cc1C(=O)O)c1cccc(Cl)c1 [Example 1:3, 4,4′-bis(3-chlorobenzamido)biphenyl-3,3′-dicarboxylic acid] | 88 |
| O=C(Nc1ccc(CCc2ccc(NC(=O)c3cccc(C(F)(F)F)c3)c(C(=O)O)c2)cc1C(=O)O)c1ccc(C(F)(F)F)cc1 [2:4, 5-{2-[3-Carboxy-4-(4-trifluoromethyl-benzoylamino)-phenyl]ethyl}-2-(3-trifluoromethylbenzoylamino)benzoic acid] | 98 |
| O=C(Nc1ccc(CCc2ccc(NC(=O)c3ccc(C(F)(F)F)cc3)c(C(=O)O)c2)cc1)c1cccc(C(F)(F)F)c1 [2:3, 2-(4-Trifluoromethylbenzoylamino)-5-{2-[4-(3-trifluoromethylbenzoylamino)-phenyl]-ethyl}benzoic acid] | 85 |
| CCCCOc1ccc(S(=O)(=O)Nc2ccc(NS(=O)(=O)c3ccc(Oc4ccccc4Cl)cc3)cc2C(=O)O)cc1 [5:5, 2-(4-Butoxyphenylsulfonamido)-5-(4-(2-chloro-phenoxy)-phenylsulfonamido)benzoic acid] | 99 |
| CCCCc1ccc(C(=O)Nc2ccc(NC(=O)c3ccc(NS(=O)(=O)c4cccc(Cl)c4C)cc3)cc2C(=O)O)cc1 [4:3, 2-(4-Butylbenzoylamino)-5-[4-(3-chloro-2-methylbenzenesulfonylamino)-benzoylamino]-benzoic acid] | 100 |
| CC(C)(C)c1ccc(C(=O)Nc2ccc(CCc3ccc(NC(=O)c4cccc(C(F)(F)F)c4)c(C(=O)O)c3)cc2C(=O)O)cc1 [2:2, 5-{2-[3-Carboxy-4-(4-tert-butylbenzoylamino)-phenyl]ethyl}-2-(3-trifluoromethylbenzoylamino)benzoic acid] | 100 |

Now from value to molecule:

| inhibition at 10 µM [%] | Structure (SMILES) |
| --- | --- |
| 98 | O=C(O)c1cc(-c2ccc(NC(=O)c3cccc4ccccc34)c(C(=O)O)c2)ccc1NC(=O)c1cccc2ccccc12 [Example 1:10, 4,4′-bis(1-naphthamido)biphenyl-3,3′-dicarboxylic acid] |
| 69 | O=C(O)c1cc(-c2ccc(NS(=O)(=O)c3cccnc3)c(C(=O)O)c2)ccc1NS(=O)(=O)c1cccnc1 [Example 1:5, 4,4′-bis(pyridine-3-sulfonamido)biphenyl-3,3′-dicarboxylic acid] |
| 100 | CC(C)(C)c1ccc(C(=O)Nc2ccc(-c3ccc(NC(=O)c4ccc(C(C)(C)C)cc4)c(C(=O)O)c3)cc2C(=O)O)cc1 [Example 1:6, 4,4′-bis(4-tert-butylbenzamido)biphenyl-3,3′-dicarboxylic acid] |
| 95 | O=C(Nc1ccc(-c2ccc(NC(=O)c3ccccc3)c(C(=O)O)c2)cc1C(=O)O)c1ccccc1 [Example 1:11, 4,4′-bis(benzamido)biphenyl-3,3′-dicarboxylic acid] |
| 100 | O=C(Cc1ccc(Cl)cc1)Nc1ccc(-c2ccc(NC(=O)Cc3ccc(Cl)cc3)c(C(=O)O)c2)cc1C(=O)O [Example 1:7, 4,4′-bis(2-(4-chlorophenyl)acetamido)biphenyl-3,3′-dicarboxylic acid] |
| 89 | Cc1ccc(S(=O)(=O)Nc2ccc(-c3ccc(NS(=O)(=O)c4ccc(C)cc4)c(C(=O)O)c3)cc2C(=O)O)cc1 [Example 1:9, 4,4′-bis(4-methylphenylsulfonamido)biphenyl-3,3′-dicarboxylic acid] |
| 99 | O=C(Nc1cccc(Cl)c1)Nc1ccc(-c2ccc(NC(=O)Nc3cccc(Cl)c3)c(C(=O)O)c2)cc1C(=O)O [Example 1:4, 4,4′-bis(3-(3-chlorophenyl)ureido)biphenyl-3,3′-dicarboxylic acid] |
| 100 | Nc1ccccc1C(=O)Nc1ccc(-c2ccc(NC(=O)c3ccccc3N)c(C(=O)O)c2)cc1C(=O)O [Example 1:8, 4,4′-bis(2-aminobenzamido)biphenyl-3,3′-dicarboxylic acid] |
| 100 | CCCCc1ccc(S(=O)(=O)Nc2ccc(NS(=O)(=O)c3ccc(Oc4ccccc4)cc3)cc2C(=O)O)cc1 [Example 5:2, 2-(4-Butylphenylsulfonamido)-5-(4-phenoxyphenylsulfonamido)-benzoic acid] |
